“Also recorded” adds a separate entry of the source.
Experiments:
[1] = tested on: IMQ induced psoriasis-like lesions in BALB/c mice; experiment: Subcutaneous injection in mice with IMQ induced psoriasis-like skin lesions; assay type: in vivo; conditions: for adverse reactions / therapeutic effect compared between groups: subcutaneous injection; for erythema, scales and infiltration in the back coating area: subcutaneous on first day (inhibitor 8 mg/kg, antibody 10 mg/kg), after 6 days of IMQ; for score of erythema, scales, infiltration and total score: subcutaneous, daily scoring during 6 days of IMQ
Method: (§1) The PCSK9 monoclonal antibody used for this example is Evolocumab. 40 SPF female BALB/c mice aged 6-8 weeks were randomly divided into normal control group, model group, PCSK9 small molecule inhibitor group and PCSK9 monoclonal antibody group. There were 10 mice for each group. After intraperitoneal injection of pentobarbital sodium 80 mg/kg, the back was shaved with an area of about 2 cm×3 cm. The mice were feed separately for 1 day.
(1) In normal control group, Vaseline was applied locally. In model group, inhibitor group and monoclonal antibody group, 62.5 mg of 5% imiquimod cream was applied on the back every day for 6 consecutive days, photos were taken and the PASI score was evaluated.
(2) On the first day, normal saline was subcutaneously administrated to normal control group and model group, PCSK9 small molecule inhibitor was subcutaneously administrated (8 mg/kg, Purchased from Selleck Inc.) to inhibitor group, and PCSK9 monoclonal antibody was subcutaneously administrated to monoclonal antibody group (10 mg/kg, Purchased from abcam Inc.)

[2] = tested on: IMQ induced psoriatic lesions in BALB/c mice; experiment: External (cream) use on IMQ induced psoriatic lesions of mice; assay type: in vivo; conditions: for erythema, scales and infiltration in the back of the mice / score of erythema, scales, infiltration and total score: cream 0.01% once daily; for erythema, scales and infiltration in the back of the mice: 7 days pretreatment, then 6 days with IMQ; for score of erythema, scales, infiltration and total score: daily score during 6 days of IMQ; for adverse reaction: external ointment once a day; for efficacy compared between groups: external use (ointment/cream)
Method: as §1, with “(1)” for “The PCSK9 monoclonal antibody used for this example is Evolocumab.”, “PCSK9” for “PCSK9 small molecule”
(2) In normal control group, vaseline was applied locally. In model group, small molecule inhibitor group and monoclonal antibody group, 62.5 mg of 5% imiquimod cream was applied on the back every day for 6 consecutive days, and photos were taken and the PASI score was evaluated.
(3) Pretreatment: vaseline was applied on the back skin with mics in normal control group and model group, PCSK9 small molecule inhibitor cream (0.01% concentration) was applied to inhibitor group once daily. And, PCSK9 monoclonal antibody cream (0.01% concentration) was applied to monoclonal antibody group once daily.
(4) After 7 days pretreatment, vaseline was applied on the back skin with mice in normal control group. At the same time, 62.5 mg 5% imiquimod cream was regularly applied daily on the back with mice in model group, small molecule inhibitor group and monoclonal antibody group. PCSK9 small molecule inhibitor cream or PCSK9 monoclonal antibody cream was applied after one hour. For 6 consecutive days, photos were taken and the PASI score was evaluated.

[3] = tested on: CD4 T cells isolated from peripheral blood of patients with psoriasis, eczema and urticaria; experiment: Effect of PCSK9 protein on cytokine secretion of peripheral blood CD4+ T cells (ELISA); assay type: cell-based, human
Method: Materials: peripheral blood of 10 cases of psoriasis, 10 cases of eczema, 10 cases of urticaria, and 10 cases of normal people. ELISA kit was purchased from Raybiotech
After PBMC was isolated by Ficoll-Hypaque from human peripheral blood by density gradient centrifugation, washed with 10 times volume 1×BD beads buffer. Then 50 ul BD IMag TM CD4 beads were added to each […]. The beads were mixed well and incubated at room temperature for 30 minutes. 1 ml 1×BD magnetic bead buffer solution was added, and the cells were transferred to the round bottom tube and placed in the magnetic frame for 8 to 10 minutes. And then the supernatant was discarded and removed the test tube from the magnetic field. After resuspension of cells attached to tube wall with 1 ml 1×BD magnetic bead buffer, the tubes were placed in magnetic field for 2-4 min again. The supernatant was discarded removed it out of the magnetic field, resuspended the cells and placed the tube in the magnetic field for 2-4 min. The cells obtained from the […] can be used in subsequent experiments. BD IMag TM CD4 separation system was purchased from BD Biosciences Company.
The supernatant was collected after cell culture under different conditions. IFN-Gamma represented TH1 type cytokines, IL-4 represented TH2 type cytokines, and IL-17 represented TH17 cytokines. The detection of IFN-Gamma, IL-4, IL-17 was conducted by ELISA.

O=C(c1ccc(-n2nnc3cccnc32)cc1)N(c1ncccc1Cl)C1CCCNC1 (stereo not drawn) [PCSK9 small molecule inhibitor]
adverse reactions [1]: no obvious adverse reactions
therapeutic effect compared between groups [1]: better than that of PCSK9 monoclonal antibody group; also recorded: significantly better than that of control group
erythema, scales and infiltration in the back coating area [1]: only mild erythema, scales and infiltration
score of erythema, scales, infiltration and total score [1]: significantly lower than that of PCSK9 monoclonal antibody group; also recorded: reduce
erythema, scales and infiltration in the back of the mice [2]: only slight erythema, scales and infiltration
score of erythema, scales, infiltration and total score [2]: significantly lower than that in PCSK9 monoclonal antibody group; also recorded: significantly reduce
adverse reaction [2]: no obvious adverse reaction
efficacy compared between groups [2]: better than that of PCSK9 monoclonal antibody group; also recorded: significantly better than that of control group

PCSK9 protein: PCSK9 protein added to CD4 T cells of patients
secretion of IL-17, IL-2 and IFN-Gamma by CD4 T cells ([3]; CD4 T cells of patients with psoriasis, eczema and urticaria, ELISA of supernatant): significantly promote
expression of NFkb in CD4 T cells ([3]; especially in psoriatic patients): increased

B1: PCSK9 monoclonal antibody: PCSK9 monoclonal antibody used for Examples 6 and 7 is Evolocumab; SEQ ID NO:3-6 (antibody, chains of the INN, looked up, V domains shown)
VH: EVQLVQSGAEVKKPGASVKVSCKASGYTLTSYGISWVRQAPGQGLEWMGWVSFYNGNTNYAQKLQGRGTMTTDPSTSTAYMELRSLRSDDTAVYYCARGYGMDVWGQGTTVTVSS
VL: ESALTQPASVSGSPGQSITISCTGTSSDVGGYNSVSWYQQHPGKAPKLMIYEVSNRPSGVSNRFSGSKSGNTASLTISGLQAEDEADYYCNSYTSTSMVFGGGTKLTVL
adverse reactions [1]: no obvious adverse reactions
therapeutic effect compared between groups [1]: significantly better than that of control group
erythema, scales and infiltration in the back coating area [1]: only mild erythema, scales and infiltration
score of erythema, scales, infiltration and total score [1]: reduce
erythema, scales and infiltration in the back of the mice [2]: only slight erythema, scales and infiltration
score of erythema, scales, infiltration and total score [2]: significantly reduce
adverse reaction [2]: no obvious adverse reaction
efficacy compared between groups [2]: significantly better than that of control group

Reference: patent publication US11214625B2, “Application of PCSK9 inhibitors in the preparation of drugs for the treatment of inflammatory immune diseases” (priority 2015, dated 2022)
